Reference: patent US6545182B2, “Methods and compositions for modulating alpha adrenergic receptor activity” (Allergan Sales, Inc., priority 2000, dated 2003)

Legend:
Assay type in all cases: cell-based
[1] = molecular target: T1, alpha 2C adrenergic receptor (Homo sapiens, UniProt P18825); assay: RSAT (Receptor Selection and Amplification Technology) assay, alpha 2C; settings: for EC50: NIH-3T3 cells cotransfected with receptor and Gq/i5; for efficacy or intrinsic activity (value in parentheses) Alpha 2C: ratio of maximal effect to that of standard full agonist brimonidine
T1 construct: expressed in transfected cells; host or cells: NIH-3T3 cells, transient cotransfection by calcium phosphate
T1 sequence (P18825 1-462): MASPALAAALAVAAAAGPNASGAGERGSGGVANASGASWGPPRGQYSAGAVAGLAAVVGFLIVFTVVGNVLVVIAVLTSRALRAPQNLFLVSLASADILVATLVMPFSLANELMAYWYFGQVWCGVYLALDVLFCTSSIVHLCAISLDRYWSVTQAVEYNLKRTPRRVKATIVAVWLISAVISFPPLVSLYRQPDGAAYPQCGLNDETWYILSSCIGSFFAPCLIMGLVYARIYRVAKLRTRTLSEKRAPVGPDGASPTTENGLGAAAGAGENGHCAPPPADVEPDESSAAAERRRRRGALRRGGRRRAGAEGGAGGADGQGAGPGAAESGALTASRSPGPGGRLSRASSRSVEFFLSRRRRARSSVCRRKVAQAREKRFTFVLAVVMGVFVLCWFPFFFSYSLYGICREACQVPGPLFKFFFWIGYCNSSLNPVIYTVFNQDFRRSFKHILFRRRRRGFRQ
Description: (§1) Activity was measured using the RSAT (Receptor Selection and Amplification Technology) assay, developed by Receptor Technologies, Inc. of Winooski, Vt. (now Acadia Pharmaceuticals of San Diego, Calif.), adapted for use with recombinant alpha2 adrenergic receptors in collaboration with Allergan. The assay measures receptor-mediated loss of contact inhibition that results in selective proliferation of receptor-containing cells in a mixed population of confluent cells. The increase in cell number is assessed with an appropriate transfected marker gene such as β-galactosidase, the activity of which can be easily measured in a 96-well format. Receptors that activate the G protein, Gq, elicit this response. Alpha2 receptors, which normally couple to Gi, activate the RSAT response when coexpressed with a hybrid Gq protein that has a Gi receptor recognition domain, called Gq/i5.
(§2) The assay is conducted as follows. NIH-3T3 cells are plated at a density of 2×10^6 cells in 15 cm dishes and maintained in Dulbecco's modified Eagle's medium supplemented with 10% calf serum. One day later, cells are cotransfected by calcium phosphate precipitation with mammalian expression plasmids encoding p-SV-β-galactosidase (5-10 μg), receptor (1-2 μg) and G protein (1-2 μg). 40 μg salmon sperm DNA may also be included in the transfection mixture to increase transfection efficiency. Fresh media is added on the following day and 1-2 days later, cells are harvested and frozen in 50 assay aliquots. Transfectant cells are thawed and 100 μl added to 100 μl aliquots of various concentrations of drugs in triplicate in 96-well dishes. Incubations continue 72-96 hr at 37°. After washing with phosphate-buffered saline, β-galactosidase enzyme activity is determined by adding 200 μl of the chromogenic substrate (consisting of 3.5 mM o-nitrophenyl-β-D-galactopyranoside and 0.5% of the non-ionic surfactant nonidet P-40 in phosphate buffered saline), incubating overnight at 30° and measuring optical density at 420 nm. The absorbency is a measure of enzyme activity, which depends on cell number and reflects a receptor-mediated cell proliferation. The EC50 and maximal effect of each drug at each alpha2 receptor is determined. The efficacy or intrinsic activity is calculated as a ratio of the maximal effect of the drug to the maximal effect of a standard full agonist for each receptor subtype. Brimonidine, also called UK14304, is used as the standard agonist for the alpha2A, alpha2B and alpha2C receptors. The RSAT assay is also discussed in Messier et al. (1995) High throughput assays of cloned adrenergic, muscarinic, neurokinin and neurotrophin receptors in living mammalian cells, Pharmacol. Toxicol. 76:308-11; see also Conklin et al. (1993) Substitution of three amino acids switches receptor specificity of Gqα to that of Giα, Nature 363:274-6; Both of these papers are incorporated by reference herein.

[2] = molecular target: T2, alpha 2A adrenergic receptor (Homo sapiens, UniProt P08913); assay: RSAT (Receptor Selection and Amplification Technology) assay, alpha 2A; settings: for EC50: NIH-3T3 cells cotransfected with receptor and Gq/i5; for efficacy or intrinsic activity (value in parentheses) Alpha 2A: ratio of maximal effect to that of standard full agonist brimonidine
T2 construct: expressed in transfected cells; host or cells: NIH-3T3 cells, transient cotransfection by calcium phosphate
T2 sequence (P08913 1-465): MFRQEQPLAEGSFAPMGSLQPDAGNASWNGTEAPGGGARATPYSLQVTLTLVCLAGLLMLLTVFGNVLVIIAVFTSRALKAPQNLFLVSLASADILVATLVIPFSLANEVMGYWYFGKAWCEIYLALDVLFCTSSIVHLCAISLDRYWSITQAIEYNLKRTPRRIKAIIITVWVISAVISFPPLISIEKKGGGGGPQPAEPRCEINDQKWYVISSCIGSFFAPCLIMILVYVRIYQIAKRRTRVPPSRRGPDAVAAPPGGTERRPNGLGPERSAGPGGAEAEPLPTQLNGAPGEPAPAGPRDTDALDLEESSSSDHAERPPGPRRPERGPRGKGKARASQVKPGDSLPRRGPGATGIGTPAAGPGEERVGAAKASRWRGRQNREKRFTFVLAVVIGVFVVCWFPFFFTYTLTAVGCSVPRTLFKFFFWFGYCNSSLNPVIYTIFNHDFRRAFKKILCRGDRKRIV
Description: as §1, §2

[3] = molecular target: T3, alpha 2B adrenergic receptor (Homo sapiens, UniProt P18089); assay: RSAT (Receptor Selection and Amplification Technology) assay, alpha 2B; settings: for EC50: NIH-3T3 cells cotransfected with receptor and Gq/i5; for efficacy or intrinsic activity (value in parentheses) Alpha 2B: ratio of maximal effect to that of standard full agonist brimonidine
T3 construct: expressed in transfected cells; host or cells: NIH-3T3 cells, transient cotransfection by calcium phosphate
T3 sequence (P18089 1-450): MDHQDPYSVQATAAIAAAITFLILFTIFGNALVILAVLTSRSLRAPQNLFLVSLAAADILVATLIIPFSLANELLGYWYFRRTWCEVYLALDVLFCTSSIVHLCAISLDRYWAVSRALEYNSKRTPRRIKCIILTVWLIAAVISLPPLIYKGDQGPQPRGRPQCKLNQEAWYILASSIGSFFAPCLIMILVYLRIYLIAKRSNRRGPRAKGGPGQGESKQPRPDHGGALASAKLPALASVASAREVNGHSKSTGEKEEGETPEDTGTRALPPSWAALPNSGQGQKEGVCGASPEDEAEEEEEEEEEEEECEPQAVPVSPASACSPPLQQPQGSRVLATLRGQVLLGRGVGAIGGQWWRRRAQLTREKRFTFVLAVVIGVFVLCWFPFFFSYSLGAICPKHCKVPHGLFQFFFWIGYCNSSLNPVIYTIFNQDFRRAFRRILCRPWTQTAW
Description: as §1, §2

EC50 [1]	EC50 [2]	EC50 [3]	efficacy or intrinsic activity (value in parentheses) Alpha 2B [3]	efficacy or intrinsic activity (value in parentheses) Alpha 2C [1]	efficacy or intrinsic activity (value in parentheses) Alpha 2A [2]	SMILES
≥ 210000 nM	≥ 210000 nM	120 nM	0.92	–	–	Cc1cc(CNC(=S)NCCO)c(F)c(F)c1F
2370 nM	≥ 210000 nM	243 nM	0.9	0.51	–	OCCNC(=S)NCc1c(F)c(F)cc(F)c1F
5060 nM	≥ 210000 nM	462 nM	0.45	0.4	–	OCCNC(=S)NCc1c(F)cccc1F
54.5 nM	≥ 210000 nM	3 nM	0.99	0.33	–	OCCNC(=S)NCc1cccc(Cl)c1Cl
≥ 210000 nM	≥ 210000 nM	99 nM	0.6	–	–	OCCNC(=S)NCc1ccc(F)c(Cl)c1
457 nM	≥ 210000 nM	16 nM	0.82	0.37	–	OCCNC(=S)NCc1cccc(Cl)c1F [drawing 20]
181 nM	≥ 210000 nM	37.5 nM	1.02	0.62	–	Cc1cc(Cl)cc(CNC(=S)NCCO)c1F
≥ 210000 nM	≥ 210000 nM	2050 nM	0.89	–	–	OCCNC(=S)NCc1c(F)cc(F)c(F)c1F
–	≥ 210000 nM	33 nM	1.1	–	–	OCCNC(=S)NCc1cccc(C(F)(F)F)c1Cl
238 nM	≥ 210000 nM	30 nM	0.75	0.34	–	OCCNC(=S)NCc1c(F)ccc(Cl)c1Cl
175 nM	380 nM	19 nM	1.09	0.53	0.33	COc1ccc(Cl)cc1CNC(=S)NCCO
≥ 210000 nM	≥ 210000 nM	495 nM	0.73	–	–	OCCNC(=S)NCc1cccc(C(F)(F)F)c1
1490 nM	≥ 210000 nM	240 nM	0.8	0.37	–	Cc1cc(Br)cc(CNC(=S)NCCO)c1F
602 nM	≥ 210000 nM	913 nM	0.9	0.3	–	Cc1cccc(CNC(=S)NCCO)c1
278 nM	546 nM	62 nM	1.06	0.66	0.31	Cc1cc(Cl)c(F)c(CNC(=S)NCCO)c1
≥ 210000 nM	≥ 210000 nM	482 nM	0.76	–	–	OCCNC(=S)NCc1ccc(F)c(F)c1F

EC50 [1]	EC50 [2]	EC50 [3]	efficacy or intrinsic activity (value in parentheses) Alpha 2B [3]	efficacy or intrinsic activity (value in parentheses) Alpha 2C [1]	efficacy or intrinsic activity (value in parentheses) Alpha 2A [2]	SMILES
1810 nM	≥ 210000 nM	59 nM	0.6	0.4	–	Cc1ccc(CNC(=S)NCCO)cc1
232 nM	63 nM	30 nM	1.16	0.58	0.42	OCCNC(=S)NCc1cccc(I)c1
273 nM	≥ 210000 nM	10 nM	0.8	0.4	–	OCCNC(=S)NCc1ccccc1Br
1420 nM	≥ 210000 nM	89 nM	0.92	0.78	–	OCCNC(=S)NCc1c(Cl)ccc(Cl)c1F
1410 nM	≥ 210000 nM	116 nM	1.23	0.58	–	OCCNC(=S)NCc1cc(Br)cc(Br)c1F
≥ 210000 nM	≥ 210000 nM	16 nM	0.7	–	–	OCCNC(=S)NCc1cccc(Cl)c1
≥ 210000 nM	≥ 210000 nM	174 nM	0.7	–	–	Cc1ccccc1CNC(=S)NCCO
≥ 210000 nM	≥ 210000 nM	380 nM	0.93	–	–	OCCNC(=S)NCc1c(Cl)cccc1Cl
≥ 210000 nM	≥ 210000 nM	174 nM	0.55	–	–	OCCNC(=S)NCc1c(F)cccc1Cl
–	≥ 210000 nM	282 nM	0.91	–	–	COc1ccc(F)c(CNC(=S)NCCO)c1
–	≥ 210000 nM	50 nM	0.78	–	–	OCCNC(=S)NCc1cc(Br)ccc1Cl
–	≥ 210000 nM	205 nM	0.81	–	–	OCCNC(=S)NCc1c(F)ccc(Br)c1F
–	≥ 210000 nM	95 nM	0.91	–	–	Cc1ccc(F)c(CNC(=S)NCCO)c1
–	≥ 210000 nM	271 nM	0.48	–	–	OCCNC(=S)NCc1cc(F)c(F)cc1F
–	≥ 210000 nM	118 nM	0.92	–	–	OCCNC(=S)NCc1cc(Cl)cc(Cl)c1F
–	≥ 210000 nM	25 nM	0.82	–	–	OCCNC(=S)NCc1cc(Cl)ccc1Br
